# Test results reported in ChEMBL document CHEMBL1148617, “Design, synthesis, and structure-activity relationships of 1-,3-,8-, and 9-substituted-9-deazaxanthines at the human A2B adenosine receptor” (J Med Chem, 2006).
# Biological target: T1, Adenosine receptor A2b (Homo sapiens) (UniProt P29275)
# T1 sequence (whole entry): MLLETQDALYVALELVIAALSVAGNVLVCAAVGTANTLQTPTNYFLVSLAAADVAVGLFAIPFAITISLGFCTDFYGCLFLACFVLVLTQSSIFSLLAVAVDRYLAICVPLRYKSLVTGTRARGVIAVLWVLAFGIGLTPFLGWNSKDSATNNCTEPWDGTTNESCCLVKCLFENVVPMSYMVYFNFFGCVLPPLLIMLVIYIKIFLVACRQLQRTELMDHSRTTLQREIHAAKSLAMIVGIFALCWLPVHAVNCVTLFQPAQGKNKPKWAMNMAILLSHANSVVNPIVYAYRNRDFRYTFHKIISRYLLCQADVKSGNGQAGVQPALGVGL
# Assay: Displacement of [3H]DPCPX from recombinant human adenosine A2B receptor expressed in HEK293 cells at 0.1 uM
# Assay type: cell-based
row,Structure (SMILES),inhibition [%]
1,CCN(Cc1ccccc1)C(=O)COc1ccc(-c2cc3c([nH]2)c(=O)n(C)c(=O)n3C)cc1,59
2,CCCn1c(=O)c2[nH]c(-c3ccc(OCC(=O)NCc4ccccc4)cc3)c(Cl)c2n(CCC)c1=O,47
3,CCCn1c(=O)c2[nH]c(-c3ccc(OCC(=O)Nc4ccc(C(=O)OCC)cc4)cc3)cc2n(C)c1=O,88
4,CCCn1c(=O)c2[nH]c(-c3ccc(OCC(=O)Nc4ccc(C)cn4)cc3)cc2n(CCC)c1=O,85
5,CCCn1c(=O)c2[nH]c(-c3ccc(OCC(=O)Nc4ccc(OC(F)(F)F)cc4)cc3)cc2n(CCC)c1=O,91
6,CCCn1c(=O)c2[nH]c(-c3ccc(OCC(=O)Nc4ccc(CC#N)cc4)cc3)cc2n(CCC)c1=O,86
7,CCCn1c(=O)c2[nH]c(-c3ccc(OCC(=O)Nc4ccc(OC)cc4)cc3)cc2n(CCC)c1=O,80
8,CCCn1c(=O)c2[nH]c(-c3ccc(OCC(=O)NCc4ccc(F)cc4)cc3)c(Cl)c2n(CCC)c1=O,25
9,CCCn1c(=O)c2[nH]c(-c3ccc(OCC(=O)c4c(NC(=O)O)[nH]c(=O)n(C)c4=O)cc3)cc2n(CCC)c1=O,66
10,CCCn1c(=O)c2[nH]c(-c3ccc(N(C=O)CC(=O)Nc4ccc(Br)cc4)cc3)cc2n(CCC)c1=O,93
11,COc1cc(OCC(=O)Nc2ccc(F)cc2)ccc1-c1cc2c([nH]1)c(=O)n(C)c(=O)n2C,63
12,CCCn1c(=O)c2[nH]c(-c3ccc(OCC(=O)Nc4ccc(C)cc4)cc3)c(Cl)c2n(CCC)c1=O,78
13,CCCn1c(=O)c2[nH]c(-c3ccc(OCC(=O)Nc4ccccc4O)cc3)cc2n(CCC)c1=O,74
14,Cn1c(=O)c2[nH]c(-c3ccc(OCC(=O)Nc4nncs4)cc3)cc2n(C)c1=O,81
15,Cn1c(=O)c2[nH]c(-c3ccc(OCC(=O)NCc4ccco4)cc3)cc2n(C)c1=O,52
16,CCCn1c(=O)c2[nH]c(-c3ccc(OCC(=O)Nc4ccc(C(=O)NCCc5ccc(OC)cc5)cc4)cc3)cc2n(CCC)c1=O,74

# Biological target: T2, Adenosine receptor A2a (Homo sapiens, UniProt P29274)
# Assay: not given
# T2 sequence (P29274 whole entry): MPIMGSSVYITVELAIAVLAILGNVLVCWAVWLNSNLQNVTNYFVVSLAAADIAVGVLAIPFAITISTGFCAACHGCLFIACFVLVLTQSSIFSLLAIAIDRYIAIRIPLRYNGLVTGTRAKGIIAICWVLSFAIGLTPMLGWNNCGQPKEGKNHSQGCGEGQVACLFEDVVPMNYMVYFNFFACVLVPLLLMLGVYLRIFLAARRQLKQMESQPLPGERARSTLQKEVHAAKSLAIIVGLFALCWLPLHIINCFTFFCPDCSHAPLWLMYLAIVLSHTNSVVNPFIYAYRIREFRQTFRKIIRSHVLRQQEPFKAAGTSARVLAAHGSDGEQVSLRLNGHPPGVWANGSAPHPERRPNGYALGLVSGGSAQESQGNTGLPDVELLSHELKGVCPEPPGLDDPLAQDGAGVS
row,Structure (SMILES),Ki [nM]
1,CCN(Cc1ccccc1)C(=O)COc1ccc(-c2cc3c([nH]2)c(=O)n(C)c(=O)n3C)cc1,891
2,CCCn1c(=O)c2[nH]c(-c3ccc(OCC(=O)NCc4ccccc4)cc3)c(Cl)c2n(CCC)c1=O,60.3
3,CCCn1c(=O)c2[nH]c(-c3ccc(OCC(=O)Nc4ccc(C(=O)OCC)cc4)cc3)cc2n(C)c1=O,2630
4,CCCn1c(=O)c2[nH]c(-c3ccc(OCC(=O)Nc4ccc(C)cn4)cc3)cc2n(CCC)c1=O,275
5,CCCn1c(=O)c2[nH]c(-c3ccc(OCC(=O)Nc4ccc(OC(F)(F)F)cc4)cc3)cc2n(CCC)c1=O,107
6,CCCn1c(=O)c2[nH]c(-c3ccc(OCC(=O)Nc4ccc(CC#N)cc4)cc3)cc2n(CCC)c1=O,39.8
7,CCCn1c(=O)c2[nH]c(-c3ccc(OCC(=O)Nc4ccc(OC)cc4)cc3)cc2n(CCC)c1=O,20
8,CCCn1c(=O)c2[nH]c(-c3ccc(OCC(=O)NCc4ccc(F)cc4)cc3)c(Cl)c2n(CCC)c1=O,49
9,CCCn1c(=O)c2[nH]c(-c3ccc(OCC(=O)c4c(NC(=O)O)[nH]c(=O)n(C)c4=O)cc3)cc2n(CCC)c1=O,15.8
10,CCCn1c(=O)c2[nH]c(-c3ccc(N(C=O)CC(=O)Nc4ccc(Br)cc4)cc3)cc2n(CCC)c1=O,35.5
11,COc1cc(OCC(=O)Nc2ccc(F)cc2)ccc1-c1cc2c([nH]1)c(=O)n(C)c(=O)n2C,95.5
12,CCCn1c(=O)c2[nH]c(-c3ccc(OCC(=O)Nc4ccc(C)cc4)cc3)c(Cl)c2n(CCC)c1=O,32.4
13,CCCn1c(=O)c2[nH]c(-c3ccc(OCC(=O)Nc4ccccc4O)cc3)cc2n(CCC)c1=O,32.4
14,Cn1c(=O)c2[nH]c(-c3ccc(OCC(=O)Nc4nncs4)cc3)cc2n(C)c1=O,16.2
15,Cn1c(=O)c2[nH]c(-c3ccc(OCC(=O)NCc4ccco4)cc3)cc2n(C)c1=O,316
16,CCCn1c(=O)c2[nH]c(-c3ccc(OCC(=O)Nc4ccc(C(=O)NCCc5ccc(OC)cc5)cc4)cc3)cc2n(CCC)c1=O,427

# Biological target: T3, Adenosine receptor A2b (Homo sapiens, UniProt P29275)
# T3 sequence (P29275 whole entry): T1 sequence (whole entry)
# Assay: not given
row,Structure (SMILES),Ki [nM]
1,CCN(Cc1ccccc1)C(=O)COc1ccc(-c2cc3c([nH]2)c(=O)n(C)c(=O)n3C)cc1,42.7
2,CCCn1c(=O)c2[nH]c(-c3ccc(OCC(=O)NCc4ccccc4)cc3)c(Cl)c2n(CCC)c1=O,83.2
3,CCCn1c(=O)c2[nH]c(-c3ccc(OCC(=O)Nc4ccc(C(=O)OCC)cc4)cc3)cc2n(C)c1=O,11.7
4,CCCn1c(=O)c2[nH]c(-c3ccc(OCC(=O)Nc4ccc(C)cn4)cc3)cc2n(CCC)c1=O,12.6
5,CCCn1c(=O)c2[nH]c(-c3ccc(OCC(=O)Nc4ccc(OC(F)(F)F)cc4)cc3)cc2n(CCC)c1=O,6.92
6,CCCn1c(=O)c2[nH]c(-c3ccc(OCC(=O)Nc4ccc(CC#N)cc4)cc3)cc2n(CCC)c1=O,11.2
7,CCCn1c(=O)c2[nH]c(-c3ccc(OCC(=O)Nc4ccc(OC)cc4)cc3)cc2n(CCC)c1=O,12
8,CCCn1c(=O)c2[nH]c(-c3ccc(OCC(=O)NCc4ccc(F)cc4)cc3)c(Cl)c2n(CCC)c1=O,174
9,CCCn1c(=O)c2[nH]c(-c3ccc(OCC(=O)c4c(NC(=O)O)[nH]c(=O)n(C)c4=O)cc3)cc2n(CCC)c1=O,21.9
10,CCCn1c(=O)c2[nH]c(-c3ccc(N(C=O)CC(=O)Nc4ccc(Br)cc4)cc3)cc2n(CCC)c1=O,7.76
11,COc1cc(OCC(=O)Nc2ccc(F)cc2)ccc1-c1cc2c([nH]1)c(=O)n(C)c(=O)n2C,25.1
12,CCCn1c(=O)c2[nH]c(-c3ccc(OCC(=O)Nc4ccc(C)cc4)cc3)c(Cl)c2n(CCC)c1=O,18.6
13,CCCn1c(=O)c2[nH]c(-c3ccc(OCC(=O)Nc4ccccc4O)cc3)cc2n(CCC)c1=O,19.1
14,Cn1c(=O)c2[nH]c(-c3ccc(OCC(=O)Nc4nncs4)cc3)cc2n(C)c1=O,15.1
15,Cn1c(=O)c2[nH]c(-c3ccc(OCC(=O)NCc4ccco4)cc3)cc2n(C)c1=O,70.8
16,CCCn1c(=O)c2[nH]c(-c3ccc(OCC(=O)Nc4ccc(C(=O)NCCc5ccc(OC)cc5)cc4)cc3)cc2n(CCC)c1=O,12.3

# Biological target: T1, Adenosine receptor A2b (Homo sapiens)
# Assay: Displacement of [3H]DPCPX from recombinant human adenosine A2B receptor expressed in HEK293 cells at 0.01 uM
row,Structure (SMILES),inhibition [%]
1,CCN(Cc1ccccc1)C(=O)COc1ccc(-c2cc3c([nH]2)c(=O)n(C)c(=O)n3C)cc1,15
2,CCCn1c(=O)c2[nH]c(-c3ccc(OCC(=O)NCc4ccccc4)cc3)c(Cl)c2n(CCC)c1=O,10
3,CCCn1c(=O)c2[nH]c(-c3ccc(OCC(=O)Nc4ccc(C(=O)OCC)cc4)cc3)cc2n(C)c1=O,12
4,CCCn1c(=O)c2[nH]c(-c3ccc(OCC(=O)Nc4ccc(C)cn4)cc3)cc2n(CCC)c1=O,40
5,CCCn1c(=O)c2[nH]c(-c3ccc(OCC(=O)Nc4ccc(OC(F)(F)F)cc4)cc3)cc2n(CCC)c1=O,53
6,CCCn1c(=O)c2[nH]c(-c3ccc(OCC(=O)Nc4ccc(CC#N)cc4)cc3)cc2n(CCC)c1=O,34
7,CCCn1c(=O)c2[nH]c(-c3ccc(OCC(=O)Nc4ccc(OC)cc4)cc3)cc2n(CCC)c1=O,22
8,CCCn1c(=O)c2[nH]c(-c3ccc(OCC(=O)NCc4ccc(F)cc4)cc3)c(Cl)c2n(CCC)c1=O,8
9,CCCn1c(=O)c2[nH]c(-c3ccc(OCC(=O)c4c(NC(=O)O)[nH]c(=O)n(C)c4=O)cc3)cc2n(CCC)c1=O,21
10,CCCn1c(=O)c2[nH]c(-c3ccc(N(C=O)CC(=O)Nc4ccc(Br)cc4)cc3)cc2n(CCC)c1=O,48
11,COc1cc(OCC(=O)Nc2ccc(F)cc2)ccc1-c1cc2c([nH]1)c(=O)n(C)c(=O)n2C,23
12,CCCn1c(=O)c2[nH]c(-c3ccc(OCC(=O)Nc4ccc(C)cc4)cc3)c(Cl)c2n(CCC)c1=O,38
13,CCCn1c(=O)c2[nH]c(-c3ccc(OCC(=O)Nc4ccccc4O)cc3)cc2n(CCC)c1=O,56
14,Cn1c(=O)c2[nH]c(-c3ccc(OCC(=O)Nc4nncs4)cc3)cc2n(C)c1=O,36
15,Cn1c(=O)c2[nH]c(-c3ccc(OCC(=O)NCc4ccco4)cc3)cc2n(C)c1=O,10
16,CCCn1c(=O)c2[nH]c(-c3ccc(OCC(=O)Nc4ccc(C(=O)NCCc5ccc(OC)cc5)cc4)cc3)cc2n(CCC)c1=O,21

# Biological target: T2, Adenosine receptor A2a
# Assay: Displacement of [3H]ZM-241385 from recombinant human adenosine A2A receptor expressed in HeLa cells at 0.1 uM
row,Structure (SMILES),inhibition [%]
1,CCN(Cc1ccccc1)C(=O)COc1ccc(-c2cc3c([nH]2)c(=O)n(C)c(=O)n3C)cc1,17
2,CCCn1c(=O)c2[nH]c(-c3ccc(OCC(=O)NCc4ccccc4)cc3)c(Cl)c2n(CCC)c1=O,43
3,CCCn1c(=O)c2[nH]c(-c3ccc(OCC(=O)Nc4ccc(C(=O)OCC)cc4)cc3)cc2n(C)c1=O,9
4,CCCn1c(=O)c2[nH]c(-c3ccc(OCC(=O)Nc4ccc(C)cn4)cc3)cc2n(CCC)c1=O,29
5,CCCn1c(=O)c2[nH]c(-c3ccc(OCC(=O)Nc4ccc(OC(F)(F)F)cc4)cc3)cc2n(CCC)c1=O,31
6,CCCn1c(=O)c2[nH]c(-c3ccc(OCC(=O)Nc4ccc(CC#N)cc4)cc3)cc2n(CCC)c1=O,46
7,CCCn1c(=O)c2[nH]c(-c3ccc(OCC(=O)Nc4ccc(OC)cc4)cc3)cc2n(CCC)c1=O,52
8,CCCn1c(=O)c2[nH]c(-c3ccc(OCC(=O)NCc4ccc(F)cc4)cc3)c(Cl)c2n(CCC)c1=O,44
9,CCCn1c(=O)c2[nH]c(-c3ccc(OCC(=O)c4c(NC(=O)O)[nH]c(=O)n(C)c4=O)cc3)cc2n(CCC)c1=O,76
10,CCCn1c(=O)c2[nH]c(-c3ccc(N(C=O)CC(=O)Nc4ccc(Br)cc4)cc3)cc2n(CCC)c1=O,90
11,COc1cc(OCC(=O)Nc2ccc(F)cc2)ccc1-c1cc2c([nH]1)c(=O)n(C)c(=O)n2C,31
12,CCCn1c(=O)c2[nH]c(-c3ccc(OCC(=O)Nc4ccc(C)cc4)cc3)c(Cl)c2n(CCC)c1=O,50
13,CCCn1c(=O)c2[nH]c(-c3ccc(OCC(=O)Nc4ccccc4O)cc3)cc2n(CCC)c1=O,82
14,Cn1c(=O)c2[nH]c(-c3ccc(OCC(=O)Nc4nncs4)cc3)cc2n(C)c1=O,43
15,Cn1c(=O)c2[nH]c(-c3ccc(OCC(=O)NCc4ccco4)cc3)cc2n(C)c1=O,13
16,CCCn1c(=O)c2[nH]c(-c3ccc(OCC(=O)Nc4ccc(C(=O)NCCc5ccc(OC)cc5)cc4)cc3)cc2n(CCC)c1=O,13
